Laboratory results taken from patent US20120295935A1, “MIXED AMINAL PHARMACEUTICAL COMPOSITIONS AND USES THEREOF” (priority 2010, published 2012).
“Also recorded” adds a separate entry of the source.

Tests used:
female SD rats = assay: Rat femur healing of surgical wounds (micro CT); assay type: in vivo; design: wound size decreased vs control / reduction in wound size / cortical thickness increased vs control: concentration or dose not given beside the values; conditions: for cortical thickness / cortical thickness increased vs control: femur anterior hole; for cortical thickness increase: femur posterior hole; for reduction in wound size: femur posterior holes
Description: Rat femur—healing of surgical wounds. A surgical hole with ˜2.0 mm in diameter was generated in the left and right femurs of twenty female SD rats (˜8 weeks, body weight ˜180 g). The holes were drilled through the femur from the anterior surface to the opposite cortex (posterior surface) in the middle of the femur. During the first 5 days, 100 μl of salubrinal solution at dosage of 0.025 mg/kg was injected subcutaneously to the left limb and a PBS solution (vehicle control) in the right limb. The injection site was closed to the anterior surgical hole. Rats were sacrificed on days 10 or 20 after surgery, and the axial and transverse hole sizes as well as cortical thickness (1.5 mm proximal and distal to the center of the hole) were determined with micro CT. […] Regarding the anterior holes, the size of the wounds 10 days after surgery was smaller in the salubrinal treated group by 10.8% (1.905±0.018 mm in control and 1.700±0.021 mm in salubrinal; p<0.001). The size in 20 day samples was further decreased by 18.0% (1.812±0.017 mm in control and 1.486±0.026 mm in salubrinal; p<0.001). […] Note that the reduction in the wound size on day 20 was more significant than those on day 10 in both the anterior and posterior holes (both p<0.001) (FIG. 15B).

MC3T3 cells = assay: Cell proliferation and death; assay type: cell-based
MLO-A5 osteocyte cells = assay: mRNA levels by real-time PCR in osteocyte cells; assay type: cell-based; conditions: 100 nM-50 μM for 1-24 h
Description: Responses to Administration of Salubrinal—In vitro responses to salubrinal: In order to evaluate the effects of salubrinal, MC3T3 E1 osteoblast-like cells and MLO-A5 osteocyte cells (Barragan-Adjemian, C., et al., “Mechanism by which MLO-A5 late osteoblasts/early osteocytes mineralize in culture: similarities with mineralization of lamellar bone,” Calcif. Tissue Int. 79:340-353 (2006)) were incubated with salubrinal at 100 nM-50 μM for 1-24 h. The mRNA levels of the selected genes, TF4, ATF3, Osteocalcin (OCN), and CHOP, were determined by real-time PCR. […] In MC3T3 cells, for instance, the Osteocalcin mRNA level, which is regulated by ATF4 and Runx2 (Xiao et al. 2005), was elevated 11.8±0.2 fold at 10 μM salubrinal in 24 h.

C57BL/6 mice = assay: In vivo injection into intramedullary cavity of femora, BMD and BMC; design: species or system mouse
Description: Responses to Administration of Salubrinal—In vivo responses to salubrinal: In order to evaluate the effects of salubrinal in vivo, salubrinal was injected into an intramedullary cavity of the left femora of C57BL/6 mice and alterations in bone mineral density (BMD) and bone mineral content (BMC) were determined. There were 9 salubrinal treated mice as well as 9 placebo mice (injection of PBS). All mice received 4 injections of either salubrinal or PBS in the left femur, while the right femur was used as contralateral control. In four consecutive injections with a 0.5-inch #26-gauge needle and a Hamilton micro-syringe, the laterial side was used on the 1st and 3rd injetions and the medial side on the 2nd and 4th injections. An injection volume was 20 μl for salubrinal or PBS, and the salubrinal concentration was 50 μM. […] At the time of harvest (2 wks after the 1st injection), an increase in body weight in Salubrinal group (0.80±0.13 g) was higher than that in Placebo group (0.28±0.15 g; p<0.05). Harvested bone samples were analyzed with PIXImus (version 1.4, GE Medical System Lunar) for determination of BMD and BMC.

## O=C(/C=C/c1ccccc1)NC(NC(=S)Nc1cccc2cccnc12)C(Cl)(Cl)Cl (stereo not drawn) [salubrinal]
Female SD rats; day 10
  cortical thickness: 0.476±0.012 mm
  cortical thickness increased vs control: 11.0%
Female SD rats; day 20
  cortical thickness: 0.551±0.014 mm
  cortical thickness increased vs control: 25.7%
Female SD rats; femur anterior holes, 10 days
  size of the wounds: 1.700±0.021 mm
Female SD rats; femur anterior holes, 10 days, 0.025 mg/kg s.c. first 5 days
  wound size smaller vs control: 10.8%
Female SD rats; femur anterior holes, 20 days
  size of the wounds: 1.486±0.026 mm
  wound size decreased vs control: 18.0%
Female SD rats; postoperative 10 days
  cortical thickness increase: 13.8%
  reduction in wound size: 4.1%
Female SD rats; postoperative 20 days
  cortical thickness increase: 21.3%
  reduction in wound size: 11.1%
MC3T3 cells; 50 μM, no statistical difference (p>0.05)
  cell death: reduced cell death
MC3T3 cells; 10 or 50 μM for 24 h
  cell proliferation or death: did not alter
MLO-A5 osteocyte cells
  mRNA levels of the selected genes: did not show any significant alterations
C57BL/6 mice; femur, 20 μl 50 μM injection
  BMC vs contralateral control: trend to elevate; also recorded: Increased
  BMD vs contralateral control: Increased
C57BL/6 mice; injected femur, mean±s.e.m.
  BMD: 0.0456±0.0011 g/cm^2
